These results are taken from patent US20190247353A1, “ACNE STRAIN-SELECTIVE ANTIBACTERIAL AGENT” (MOMOTANI JUNTENKAN CO., LTD., priority 2016, published 2019).

Type in all cases: cell-based, Propionibacterium acnes
The test system of one assay is HL005PA1 strain (RT4). Briefly: MIC by broth microdilution method, HL005PA1 strain. As to conditions: Cutibacterium acnes, PA1; Example 6, method as Example 1; read-out: MIC against acne bacterium strain HL005 PA1 strain (RT4). On the procedure: (§1) The antibacterial activity of a test substance was determined based on the minimum inhibitory concentration (MIC). An MIC was measured according to the broth microdilution method which is the standard method of Japanese Society of Chemotherapy.
(§2) Each of strain suspensions (5.0×10^4 cfu/mL) was aliquoted in a 96-well round bottom microplate, each of the test substance (fatty acid concentration 10,000 μg/mL) was added at a 1/10 volume to the aliquot and mixed to prepare measurement samples (fatty acid concentration: 1,000 μg/mL). Measurement samples in 2-fold dilution series were prepared using the strain suspension (fatty acid concentration from 0.48 to 1,000 μg/mL). Using a sample containing only the solvent (DMSO) as a control, it was confirmed that the influence of the solvent on the growth of each strain could be neglected.
(§3) The measurement samples were incubated under an anaerobic condition at 37° C. for 2 days. The presence or absence of a precipitation of test microbial cells after the incubation was examined and the minimum concentration at which the precipitation of microbial cells […] was regarded as the MIC (μg/mL) of the test substance against the acne bacterium strain.
(§4) The MIC of each of the following test substances was measured substantially in the same manner as in Example 1 (Table 12) except that a suspension of test bacterium strains was prepared using the dominant strain in acne patients (HL005PA1 strain (HM-492^†, RT4 strain), […] (HM-524^†, RT4 strain), HL045PA1 strain (HM-516^†, RT4 strain), or HL043PA2 strain (HM-514^†, RT5 strain)), or the dominant strain in healthy subjects (HL110PA4 strain (HM-555^†, RT6 strain) instead of the dominant strains in acne patients (HL053PA1 strain (RT4 strain) and HL043PA1 strain (RT5 strain)) and the dominant strain in healthy subjects (HL110PA3 strain (RT6 strain) used in Examples 1 to 3.
For orientation: Dilution methods test growth across graded concentrations, often in twofold steps.

The subject of another assay is HL110PA3 strain (RT6). Briefly: MIC by broth microdilution method, HL110PA3 strain. As to conditions: Cutibacterium acnes, read-out: MIC against acne bacterium strain HL110PA3 strain (RT6). The procedure:
(§5) An MIC is measured herein according to the broth microdilution method which is the standard method of Japanese Society of Chemotherapy.
as §1
(§6) One-loopful of each acne bacterium strain listed in Table 1 was scraped off and inoculated into 5 mL of a GAM broth slant agar medium (pH 7.0, Nissui Pharmaceutical Co., Ltd.).
The inoculated acne bacterium strain was precultured at 37° C. in a nitrogen atmosphere (anaerobic condition) for 48 hours. The precultured microbial cells were diluted in a modified GAM broth liquid medium (pH 6.0) to a concentration of 5.0×10^4 cfu/mL (viable cell count per OD660=1 is 2.0×10^9 cfu/mL), to prepare strain suspensions.
(§7) Each fatty acid (Tokyo Chemical Industry Co., Ltd.) listed in Table 2 was dissolved in dimethylsulfoxide (DMSO) as a solvent such that the concentration became 10,000 μg/mL, and used as a test substance.
(§8) Each of strain suspensions (5.0×10^4 cfu/mL) was aliquoted in a 96-well round bottom microplate, each of the test substance (fatty acid concentration 10,000 μg/mL) was added at a 1/10 volume to the aliquot and mixed to prepare measurement samples (fatty acid concentration: 1,000 μg/mL). Measurement samples in 2-fold dilution series were prepared using the strain suspension (fatty acid concentration from 0.48 to 1,000 μg/mL).
[…] The presence or absence of a precipitation of test microbial cells after the incubation was examined and the minimum concentration at which the precipitation of microbial cells […] was regarded as the MIC (μg/mL) of the test substance against the acne bacterium strain.

A further assay relates to HL045PA1 strain (RT4). Briefly: MIC by broth microdilution method, HL045PA1 strain. As to conditions: Cutibacterium acnes, PA1; Example 6, method as Example 1; read-out: MIC against acne bacterium strain HL045 PA1 strain (RT4). On the procedure: as §1, §2, §3, §4
In another assay the test system is HL110PA4 strain (RT6). The experiment in a line: MIC by broth microdilution method, HL110PA4 strain. As to conditions: Cutibacterium acnes; Example 6, method as Example 1; read-out: MIC against acne bacterium strain HL110 PA4 strain (RT6). The procedure:
as §1, §2, §3, §4

For the next assay, the system named is HL056PA1 strain (RT4). Briefly: MIC by broth microdilution method, HL056PA1 strain. As to conditions: Cutibacterium acnes, PA1; Example 6, method as Example 1; read-out: MIC against acne bacterium strain HL056 PA1 strain (RT4). On the procedure:
as §1, §2, §3, §4

The test system of the next assay is HL043PA2 strain (RT5). Briefly: MIC by broth microdilution method, HL043PA2 strain. As to conditions: Cutibacterium acnes; Example 6, method as Example 1; read-out: MIC against acne bacterium strain HL043 PA2 strain (RT5). On the procedure:
as §1, §2, §3, §4

The subject of the next assay is HL043PA1 strain (RT5). Briefly: MIC by broth microdilution method, HL043PA1 strain. As to conditions: for MIC: Cutibacterium acnes, read-out: MIC against acne bacterium strain HL043PA1 strain (RT5). The procedure: as §5, §1, §6
The inoculated acne bacterium strain was precultured at 37° C. in a nitrogen atmosphere (anaerobic condition) for 48 hours. […]
as §7, §8, §3

Assay [1] deals with HL005PA1, HL056PA1, HL045PA1 (RT4) and HL043PA2 (RT5) strains versus HL110PA4 strain (RT6). Briefly: Strain-selective antibacterial activity against different acne bacterium strains (Example 6). As to conditions: Example 6 strains.
Description: Herein, “acne strain-selective antibacterial activity” or “strain-selective antibacterial activity” means an index indicating better inhibition of growth of a dominant strain in acne patients compared to that of a dominant strain in healthy subjects. It is expressed by the average value of the values (MICRT6/MICRT4, and MICRT6/MICRTS) obtained by dividing the minimum inhibitory concentration (MIC) of an object substance with respect to the dominant strain in healthy subjects (RT6 strain) (MICRT6) respectively by the MIC of the object substance with respect to the dominant strain in acne patients (RT4 strain) (MICRT4), and by the MIC of the object substance with respect to the dominant strain in acne patients (RT5 strain) (MICRT5).
The strain-selective antibacterial activity of each test substance (Table 2, right-most column) was evaluated based on the following rating criteria (Table 3). When the strain-selective antibacterial activity is indicated by a numerical range, the rating was based on the minimum value thereof.
as §4

[2] abbreviates: 48 h, pH 6.0 modified GAM broth, anaerobic, 37° C., 2 days (Example 1).
Where [3] appears, read: 72 h, pH 5.5, estimated from the growth on day 3.
The mark [4] stands for this setting: 96 h, pH 5.0, estimated from the growth on day 4.
Where [5] appears, read: 72 h, pH 5.0, estimated from the growth on day 3.
The mark [6] stands for this setting: pH 5.0, estimated from the growth on day 3.

In brackets after ≈: the same amount, converted by molar mass. Read-outs that look alike come from different tables or passages of the source.

The MIC is the lowest concentration that inhibits growth of the organism. For `CCCCCCCCCCCCCCCCC(=O)O` [Heptadecanoic acid (C17:0), Heptadecanoic acid], the MIC in the assay on HL005PA1 strain (RT4) is 62.5 µg/mL (≈ 231 µM); in the assay on HL110PA3 strain (RT6) (setting [2]), greater than 1000 µg/mL; in the assay on HL110PA3 strain (RT6) (setting [3]), greater than 1000 µg/mL; with HL110PA3 strain (RT6) (setting [4]), greater than 1000 µg/mL; with HL110PA3 strain (RT6) (pH 6.5), greater than 1000 µg/mL; in the assay with HL110PA3 strain (RT6) (pH 7.0) it was 1000 µg/mL (≈ 3700 µM). For the same compound, the MIC in the assay on HL045PA1 strain (RT4) was 125 µg/mL (≈ 462 µM); with HL110PA4 strain (RT6), greater than 1000 µg/mL; with HL056PA1 strain (RT4), 250 µg/mL (≈ 924 µM); in the assay on HL043PA2 strain (RT5), 62.5 µg/mL (≈ 231 µM); with HL043PA1 strain (RT5) (setting [2]) it was 7.81 µg/mL (≈ 28.9 µM); in the assay with HL043PA1 strain (RT5) (setting [5]), greater than 1000 µg/mL. Besides, the MIC in the assay with HL043PA1 strain (RT5) (pH 5.5) stood at 15.6 µg/mL (≈ 57.7 µM); with HL043PA1 strain (RT5) (pH 6.5) it was 3.9 µg/mL (≈ 14.4 µM); in the assay on HL043PA1 strain (RT5) (pH 7.0) it was 7.8 µg/mL (≈ 28.8 µM). Further, the “MIC against acne bacterium strain HL043PA1 strain (RT5)” value in the assay with HL043PA1 strain (RT5) (setting [6]) was greater than 1000 µg/mL. In assay [1], this compound returned a Strain-selective antibacterial activity greater than 11.
For the compound `CCCCCCCCCCCCCC(=O)O` [Myristic acid (C14:0), Myristic acid], the MIC in the assay with HL005PA1 strain (RT4) was 31.3 µg/mL (≈ 137 µM); with HL110PA3 strain (RT6) (setting [2]) it was 250 µg/mL (≈ 1090 µM); with HL110PA3 strain (RT6) (setting [3]) it was greater than 1000 µg/mL; in the assay on HL110PA3 strain (RT6) (setting [4]), greater than 1000 µg/mL; in the assay on HL110PA3 strain (RT6) (pH 6.5) it was 250 µg/mL (≈ 1090 µM); in the assay on HL110PA3 strain (RT6) (pH 7.0), 500 µg/mL (≈ 2190 µM). The minimum inhibitory concentration (MIC) was 31.3 µg/mL (≈ 137 µM) in the assay with HL045PA1 strain (RT4); 250 µg/mL (≈ 1090 µM) in the assay with HL110PA4 strain (RT6); 125 µg/mL (≈ 547 µM) in the assay on HL056PA1 strain (RT4); 15.6 µg/mL (≈ 68.3 µM) with HL043PA2 strain (RT5); 15.6 µg/mL (≈ 68.3 µM) in the assay with HL043PA1 strain (RT5) (setting [2]); 31.3 µg/mL (≈ 137 µM) in the assay on HL043PA1 strain (RT5) (setting [5]). For the same compound, the figures for the MIC in the assay on HL043PA1 strain (RT5) (pH 5.5), in the assay on HL043PA1 strain (RT5) (pH 6.5) and in the assay with HL043PA1 strain (RT5) (pH 7.0) were 15.6 µg/mL (≈ 68.3 µM), 31.3 µg/mL (≈ 137 µM) and 250 µg/mL (≈ 1090 µM), respectively. This compound also gave a Strain-selective antibacterial activity in assay [1] of 8.5.
On to `CCCCCCCCCCCCCCCC(=O)O` [Palmitic acid (C16:0), Palmitic acid], for which the MIC is 62.5 µg/mL (≈ 244 µM) in the assay on HL005PA1 strain (RT4); greater than 1000 µg/mL in the assay with HL110PA3 strain (RT6) (setting [2]); greater than 1000 µg/mL in the assay with HL110PA3 strain (RT6) (setting [3]); greater than 1000 µg/mL with HL110PA3 strain (RT6) (setting [4]); greater than 1000 µg/mL in the assay on HL110PA3 strain (RT6) (pH 6.5); 1000 µg/mL (≈ 3900 µM) with HL110PA3 strain (RT6) (pH 7.0). In addition, the MIC is 250 µg/mL (≈ 975 µM) with HL045PA1 strain (RT4); greater than 1000 µg/mL in the assay with HL110PA4 strain (RT6); 500 µg/mL (≈ 1950 µM) in the assay on HL056PA1 strain (RT4); 62.5 µg/mL (≈ 244 µM) in the assay on HL043PA2 strain (RT5); 7.81 µg/mL (≈ 30.5 µM) with HL043PA1 strain (RT5) (setting [2]); greater than 1000 µg/mL in the assay with HL043PA1 strain (RT5) (setting [5]). In addition, the MIC was 62.5 µg/mL (≈ 244 µM) in the assay with HL043PA1 strain (RT5) (pH 5.5), 3.9 µg/mL (≈ 15.2 µM) in the assay with HL043PA1 strain (RT5) (pH 6.5) and 15.6 µg/mL (≈ 60.8 µM) in the assay with HL043PA1 strain (RT5) (pH 7.0). In the assay with HL043PA1 strain (RT5) (setting [6]), the “MIC against acne bacterium strain HL043PA1 strain (RT5)” value is greater than 1000 µg/mL. In addition, the Strain-selective antibacterial activity in assay [1] is greater than 9.5.
In the case of `CCCCCCCCCCCCCCC(=O)O` [Pentadecanoic acid (C15:0), Pentadecanoic acid], the minimal inhibitory concentration (MIC) was 3.9 µg/mL (≈ 16.1 µM) in the assay with HL005PA1 strain (RT4); 250 µg/mL (≈ 1030 µM) with HL110PA3 strain (RT6) (setting [2]); greater than 1000 µg/mL in the assay with HL110PA3 strain (RT6) (setting [3]); greater than 1000 µg/mL with HL110PA3 strain (RT6) (setting [4]); 250 µg/mL (≈ 1030 µM) in the assay with HL110PA3 strain (RT6) (pH 6.5); 1000 µg/mL (≈ 4130 µM) with HL110PA3 strain (RT6) (pH 7.0). Further, the minimum inhibitory concentration (MIC) was 3.9 µg/mL (≈ 16.1 µM) in the assay on HL045PA1 strain (RT4); 250 µg/mL (≈ 1030 µM) in the assay on HL110PA4 strain (RT6); 3.9 µg/mL (≈ 16.1 µM) in the assay with HL056PA1 strain (RT4); 3.9 µg/mL (≈ 16.1 µM) in the assay on HL043PA2 strain (RT5); 1.95 µg/mL (≈ 8.04 µM) in the assay with HL043PA1 strain (RT5) (setting [2]); 15.6 µg/mL (≈ 64.4 µM) in the assay with HL043PA1 strain (RT5) (setting [5]). Moreover, the figures for the minimal inhibitory concentration (MIC) in the assay on HL043PA1 strain (RT5) (pH 5.5), with HL043PA1 strain (RT5) (pH 6.5) and in the assay with HL043PA1 strain (RT5) (pH 7.0) were 3.9 µg/mL (≈ 16.1 µM), 1.95 µg/mL (≈ 8.04 µM) and 3.9 µg/mL (≈ 16.1 µM), respectively. The Strain-selective antibacterial activity in assay [1] is reported as 64.
